Bounds are passed on as bounds.

The record followed here is US10138236B2, “Factor xia-inhibiting pyridobenzazepine and pyridobenzazocine derivatives” (BAYER PHARMA AKTIENGESELLSCHAFT, priority 2014, dated 2018).

Assay [1] concerns the target human plasma kallikrein (Homo sapiens (Human), UniProt P03952). As to the kind of experiment: Determination of the plasma kallikrein activity. In kind it is biochemical. Conditions: plasma kallikrein from Kordia, substrate H-Pro-Phe-Arg-AMC, fluorescence. On the procedure:
a.5) Determination of the Plasma Kallikrein Activity
To determine the plasma kallikrein inhibition of the substances according to the invention, a biochemical test system is used which utilizes the reaction of a peptidic plasma kallikrein substrate to determine the enzymatic activity of human plasma kallikrein. Here, plasma kallikrein cleaves from the peptic plasma kallikrein substrate the C-terminal aminomethylcoumarin (AMC), the fluorescence of which is measured. The determinations are carried out in microtitre plates.
1 μl of the diluted substance solutions is placed into each of the wells of white microtitre plates from Greiner (384 wells). 20 μl of assay buffer (50 mM Tris/HCl pH 7.4; 100 mM sodium chloride solution; 5 mM of calcium chloride solution; 0.1% of bovine serum albumin) and 20 μl of plasma kallikrein from Kordia (0.6 nM in assay buffer) are then added successively. After 15 min of incubation, the enzyme reaction is started by addition of 20 μl of the substrate H-Pro-Phe-Arg-AMC dissolved in assay buffer (10 μM in assay buffer) from Bachem, the mixture is incubated at room temperature (22° C.) for 30 min and fluorescence is then measured (excitation: 360 nm, emission: 460 nm). The measured emissions of the test batches with test substance are compared to those of control batches without test substance (only dimethyl sulphoxide instead of test substance in dimethyl sulphoxide), and IC50 values are calculated from the concentration/activity relationships.

Assay [2] deals with human factor XIa (Homo sapiens (Human), UniProt P03951). As to the kind of experiment: Measurement of FXIa inhibition. In kind it is biochemical. Conditions: factor XIa from Kordia, substrate Boc-Glu(OBzl)-Ala-Arg-AMC, fluorescence. On the procedure:
a.1) Measurement of FXIa Inhibition
The factor XIa inhibition of the substances according to the invention is determined using a biochemical test system which utilizes the reaction of a peptidic factor XIa substrate to determine the enzymatic activity of human factor XIa. Here, factor XIa cleaves from the peptic factor XIa substrate the C-terminal aminomethylcoumarin (AMC), the fluorescence of which is measured. The determinations are carried out in microtitre plates.
1 μl of the diluted substance solutions is placed into each of the wells of white microtitre plates from Greiner (384 wells). […] After 15 min of incubation, the enzyme reaction is started by addition of 20 μl of the factor XIa substrate Boc-Glu(OBzl)-Ala-Arg-AMC dissolved in assay buffer (10 μM in assay buffer) from Bachem, the mixture is incubated at room temperature (22° C.) for 30 min and fluorescence is then measured (excitation: 360 nm, emission: 460 nm). The measured emissions of the test batches with test substance are compared to those of control batches without test substance (only dimethyl sulphoxide instead of test substance in dimethyl sulphoxide), and IC50 values are calculated from the concentration/activity relationships.

Sequence of human factor XIa (P03951 388-625): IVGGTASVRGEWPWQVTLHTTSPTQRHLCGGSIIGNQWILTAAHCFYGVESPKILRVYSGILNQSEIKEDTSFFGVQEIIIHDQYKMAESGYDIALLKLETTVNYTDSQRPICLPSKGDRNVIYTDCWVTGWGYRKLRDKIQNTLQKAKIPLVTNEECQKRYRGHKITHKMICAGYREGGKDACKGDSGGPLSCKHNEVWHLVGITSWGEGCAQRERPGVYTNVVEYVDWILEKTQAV
Sequence of human factor XIa (P03951 19-387 partner): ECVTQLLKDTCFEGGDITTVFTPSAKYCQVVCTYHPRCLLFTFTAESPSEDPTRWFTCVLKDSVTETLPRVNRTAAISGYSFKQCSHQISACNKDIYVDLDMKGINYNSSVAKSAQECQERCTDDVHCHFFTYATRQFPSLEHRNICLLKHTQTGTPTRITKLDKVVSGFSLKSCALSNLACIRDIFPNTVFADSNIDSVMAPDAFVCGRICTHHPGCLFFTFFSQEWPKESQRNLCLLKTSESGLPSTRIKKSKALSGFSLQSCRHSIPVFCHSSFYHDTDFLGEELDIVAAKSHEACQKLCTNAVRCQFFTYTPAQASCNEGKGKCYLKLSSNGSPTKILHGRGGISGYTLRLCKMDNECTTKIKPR
Sequence of human plasma kallikrein (P03952 391-638): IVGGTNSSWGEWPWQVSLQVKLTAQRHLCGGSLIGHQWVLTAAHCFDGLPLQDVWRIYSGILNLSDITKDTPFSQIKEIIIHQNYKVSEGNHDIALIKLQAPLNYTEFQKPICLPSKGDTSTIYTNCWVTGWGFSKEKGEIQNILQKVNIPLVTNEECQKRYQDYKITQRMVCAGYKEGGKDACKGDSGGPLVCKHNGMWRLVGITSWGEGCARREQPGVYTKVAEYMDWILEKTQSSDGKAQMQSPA
Sequence of human plasma kallikrein (P03952 20-390 partner): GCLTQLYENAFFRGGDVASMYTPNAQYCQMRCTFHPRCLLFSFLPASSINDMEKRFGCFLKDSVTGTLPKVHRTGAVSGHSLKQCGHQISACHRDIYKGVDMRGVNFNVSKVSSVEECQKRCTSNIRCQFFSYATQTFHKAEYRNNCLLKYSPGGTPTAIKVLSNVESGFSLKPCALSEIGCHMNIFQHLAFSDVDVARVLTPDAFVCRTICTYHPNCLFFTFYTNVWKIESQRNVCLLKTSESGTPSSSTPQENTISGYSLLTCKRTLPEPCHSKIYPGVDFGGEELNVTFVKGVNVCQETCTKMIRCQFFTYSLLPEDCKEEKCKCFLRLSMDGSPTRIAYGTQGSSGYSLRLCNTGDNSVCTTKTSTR

As usually defined, the IC50 is the concentration needed to halve the response being measured. A low value points to higher potency. As for `COCCC(C(=O)Nc1ccc(C(=O)O)nc1)n1cc2c(cc1=O)-c1cc(Cl)ccc1CC1(CC1)NC2=O` (centres unmarked) [Example 20, 5-{[2-(11′-Chloro-2′,5′-dioxo-2′,5′,6′,8′-tetrahydro-3′H-spiro[cyclopropane-1,7′-pyrido[3,4-e][3]benzazocine]-3′-yl)-4-methoxybutanoyl]amino}pyridine-2-carboxylic acid], the IC50 in assay [1] stood at 4500 nM; in assay [2], 47 nM.

`O=C1NC2(CC2)Cc2ccc(Cl)cc2-c2cc(=O)n(C(Cc3ccccc3)C(=O)Nc3ccc4[nH]c(=O)[nH]c4c3)cc21` (centres unmarked) [Example 29, 2-(11′-Chloro-2′,5′-dioxo-2′,5′,6′,8′-tetrahydro-3′H-spiro[cyclopropane-1,7′-pyrido[3,4-e][3]benzazocine]-3′-yl)-N-(2-oxo-2,3-dihydro-1H-benzimidazol-5-yl)-3-phenylpropanamide]: the IC50 was 42 nM in assay [1] and 4.5 nM in assay [2].

Consider `COCCC(C(=O)Nc1ccc2nn(C)cc2c1)n1cc2c(cc1=O)-c1cc(Cl)ccc1CC1(CC1)NC2=O` (centres unmarked) [Example 15, 2-(11′-Chloro-2′,5′-dioxo-2′,5′,6′,8′-tetrahydro-3′H-spiro[cyclopropane-1,7′-pyrido[3,4-e][3]benzazocine]-3′-yl)-4-methoxy-N-(2-methyl-2H-indazol-5-yl)butanamide], for which the IC50 in assay [1] worked out at 240 nM; in assay [2], 8.2 nM.

As for `COCCC(C(=O)Nc1ccc2nccn2c1)n1cc2c(cc1=O)-c1cc(Cl)ccc1CC1(CC1)NC2=O` (centres unmarked) [Example 17, 2-(11′-Chloro-2′,5′-dioxo-2′,5′,6′,8′-tetrahydro-3′H-spiro[cyclopropane-1,7′-pyrido[3,4-e][3]benzazocine]-3′-yl)-N-(imidazo[1,2-a]pyridin-6-yl)-4-methoxybutanamide], the IC50 in assay [1] stood at 1200 nM; in assay [2], 44 nM.

With `COCCC(C(=O)Nc1cc(C(=O)O)cs1)n1cc2c(cc1=O)-c1cc(Cl)ccc1CC1(CC1)NC2=O` (centres unmarked) [Example 23, 5-{[2-(11′-Chloro-2′,5′-dioxo-2′,5′,6′,8′-tetrahydro-3′H-spiro[cyclopropane-1,7′-pyrido[3,4-e][3]benzazocine]-3′-yl)-4-methoxybutanoyl]amino}thiophene-3-carboxylic acid], the results for the IC50 in assay [1] and in assay [2] were 3900 nM and 100 nM, respectively.

For `COCCC(C(=O)Nc1ccn2nccc2c1)n1cc2c(cc1=O)-c1cc(Cl)ccc1CC1(CC1)NC2=O` (centres unmarked) [Example 16, 2-(11′-Chloro-2′,5′-dioxo-2′,5′,6′,8′-tetrahydro-3′H-spiro[cyclopropane-1,7′-pyrido[3,4-e][3]benzazocine]-3′-yl)-4-methoxy-N-(pyrazolo[1,5-a]pyridin-5-yl)butanamide], the IC50 in assay [1] came out at 210 nM; in assay [2], 11 nM.

As for `COCCC(C(=O)Nc1ccc2[nH]c(=O)[nH]c2c1)n1cc2c(cc1=O)-c1cc(Cl)ccc1CC1(CC1)NC2=O` (centres unmarked) [Example 14, 2-(11′-Chloro-2′,5′-dioxo-2′,5′,6′,8′-tetrahydro-3′H-spiro[cyclopropane-1,7′-pyrido[3,4-e][3]benzazocine]-3′-yl)-4-methoxy-N-(2-oxo-2,3-dihydro-1H-benzimidazol-5-yl)butanamide], the IC50 in assay [1] turned out to be 230 nM; in assay [2], 18 nM.

On to `CCC(C(=O)Nc1ccc(C(=O)O)cc1)n1cc2c(cc1=O)-c1cc(Cl)ccc1CNC2=O` (centres unmarked) [Example 1, 4-{[2-(10-Chloro-2,5-dioxo-2,5,6,7-tetrahydro-3H-pyrido[3,4-d][2]benzazepin-3-yl)butanoyl]amino}benzoic acid], for which the values for the IC50 in assay [1] and in assay [2] were above 10000 nM and 420 nM, respectively.

Regarding `O=C(O)c1ccc(NC(=O)C(Cc2ccccc2)n2cc3c(cc2=O)-c2cc(Cl)ccc2CC2(CC2)NC3=O)cc1` (centres unmarked) [Example 28, 4-{[2-(11′-Chloro-2′,5′-dioxo-2′,5′,6′,8′-tetrahydro-3′H-spiro[cyclopropane-1,7′-pyrido[3,4-e][3]benzazocine]-3′-yl)-3-phenylpropanoyl]amino}benzoic acid], the IC50 was 55 nM in assay [1] and 1.8 nM in assay [2].

With `COCCC(C(=O)Nc1ccc(C(=O)O)cc1)n1cc2c(cc1=O)-c1cc(Cl)ccc1CC(CF)NC2=O` (centres unmarked) [Example 33, 4-({2-[11-Chloro-7-(fluoromethyl)-2,5-dioxo-5,6,7,8-tetrahydropyrido[3,4-e][3]benzazocin-3(2H)-yl]-4-methoxybutanoyl}amino)benzoic acid], the figures for the IC50 in assay [1] and in assay [2] were 97 nM and 1.2 nM, respectively.

For `CO[C@H]1CC[C@H](CC(C(=O)Nc2ccc(C(=O)O)cc2)n2cc3c(cc2=O)-c2cc(Cl)ccc2CC2(CC2)NC3=O)CC1` (stereo partly drawn) [Example 25, 4-{[2-(11′-Chloro-2′,5′-dioxo-2′,5′,6′,8′-tetrahydro-3′H-spiro[cyclopropane-1,7′-pyrido[3,4-e][3]benzazocine]-3′-yl)-3-(trans-4-methoxycyclohexyl)propanoyl]amino}benzoic acid], the figures for the IC50 in assay [1] and in assay [2] were 370 nM and 2.5 nM, respectively.

As for `CC(C)CC(C(=O)Nc1ccc(C(=O)O)cc1)n1cc2c(cc1=O)-c1cc(Cl)ccc1CCNC2=O` (centres unmarked) [Example 8, 4-{[2-(11-Chloro-2,5-dioxo-5,6,7,8-tetrahydropyrido[3,4-e][3]benzazocin-3(2H)-yl)-4-methylpentanoyl]amino}benzoic acid], the IC50 in assay [1] turned out to be 680 nM; in assay [2], 36 nM.

Regarding `CCC(C(=O)Nc1ccc(-c2noc(=O)[nH]2)cc1)n1cc2c(cc1=O)-c1cc(Cl)ccc1CCNC2=O` (centres unmarked) [Example 7, 2-(11-Chloro-2,5-dioxo-5,6,7,8-tetrahydropyrido[3,4-e][3]benzazocin-3(2H)-yl)-N-[4-(5-oxo-4,5-dihydro-1,2,4-oxadiazol-3-yl)phenyl]butanamide], the IC50 is 3300 nM in assay [1] and 44 nM in assay [2].

Take `CO[C@H]1CC[C@H](CC(C(=O)Nc2ccc3[nH]c(=O)[nH]c3c2)n2cc3c(cc2=O)-c2cc(Cl)ccc2CC2(CC2)NC3=O)CC1` (stereo partly drawn) [Example 27, 2-(11′-Chloro-2′,5′-dioxo-2′,5′,6′,8′-tetrahydro-3′H-spiro[cyclopropane-1,7′-pyrido[3,4-e][3]benzazocine]-3′-yl)-3-(trans-4-methoxycyclohexyl)-N-(2-oxo-2,3-dihydro-1H-benzimidazol-5-yl)propanamide]: the values for the IC50 in assay [1] and in assay [2] were 250 nM and 18 nM, respectively.

With `CO[C@H]1CC[C@H](CC(C(=O)Nc2ccc(C(N)=O)c(F)c2)n2cc3c(cc2=O)-c2cc(Cl)ccc2CC2(CC2)NC3=O)CC1` (stereo partly drawn) [Example 26, 4-{[2-(11′-Chloro-2′,5′-dioxo-2′,5′,6′,8′-tetrahydro-3′H-spiro[cyclopropane-1,7′-pyrido[3,4-e][3]benzazocine]-3′-yl)-3-(trans-4-methoxycyclohexyl)propanoyl]amino}-2-fluorobenzamide], the IC50 was determined as 740 nM in assay [1] and 34 nM in assay [2].

On to `CCC(C(=O)Nc1ccc(C(=O)O)cc1)n1cc2c(cc1=O)-c1cc(Cl)ccc1CC1(CC1)NC2=O` (centres unmarked) [Example 10, 4-{[2-(11′-Chloro-2′,5′-dioxo-2′,5′,6′,8′-tetrahydro-3′H-spiro[cyclopropane-1,7′-pyrido[3,4-e][3]benzazocine]-3′-yl)butanoyl]amino}benzoic acid], for which the IC50 in assay [1] came to 2100 nM; in assay [2] it was 7.7 nM.
